# Assay results from PubChem BioAssay (NCI).
#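 The compound was tested at five concentrations on cells cultured in 96-well plates, with a 48-hour exposure period. GI50 marks 50% less growth. At the TGI there is no net growth.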
# Legend:
# Experiment in all cases: inhibition of tumour cell growth, NCI panel, 48 h
# [1] = tested on: HOP-92 NSCLC
# [2] = tested on: LOX IMVI melanoma
# [3] = tested on: SF-539 CNS
# [4] = tested on: CAKI-1 renal
# [5] = tested on: HCT-116 colon
# [6] = tested on: SN12C renal
# [7] = tested on: KM12 colon
# [8] = tested on: HCT-15 colon
# [9] = tested on: NCI/ADR-RES ovarian
# [10] = tested on: OVCAR-5 ovarian
SMILES,GI50 [1] [µM],TGI [1] [µM],GI50 [2] [µM],TGI [2] [µM],GI50 [3] [µM],TGI [3] [µM],GI50 [4] [µM],TGI [4] [µM],GI50 [5] [µM],TGI [5] [µM],GI50 [6] [µM],TGI [6] [µM],GI50 [7] [µM],TGI [7] [µM],GI50 [8] [µM],TGI [8] [µM],GI50 [9] [µM],TGI [9] [µM],GI50 [10] [µM],TGI [10] [µM]
N[C@@H]1CCCC[C@@H]1N.O=C([O-])CN(CP(=O)([O-])[O-])CP(=O)([O-])[O-].[Pt+2],> 100,> 100,> 100,> 100,> 100,> 100,> 100,> 100,> 100,> 100,> 100,> 100,> 100,> 100,> 100,> 100,,,,
COc1cc(-c2cc(/C=C3\C(=O)Nc4ccccc43)[nH]n2)cc(OC)c1OC,1.97,9.12,2.43,7.94,3.49,16.3,,,2.74,11.1,3.58,14.5,1.26,10.7,2.57,10.1,2.33,6.67,5.16,27.9
NCCP(=O)(O)O,,> 100,,> 100,,,,> 100,,> 100,,> 100,,> 100,,> 100,,> 100,,> 100
CCCCN(CCCC)C(=O)C(=O)C(C)C(=O)CC (stereo not drawn),,> 100,,> 100,,> 100,,> 100,,,,> 100,,> 100,,> 100,,,,> 100
BrC1=CC=C2NCCCCCCN=C3C=CC(Br)=CC=C3NCCCCCCN=C2C=C1,,> 25.5,,> 25.5,,> 25.5,,> 25.5,,> 25.5,,> 25.5,,> 25.5,,> 25.5,,,,> 25.5
COc1cc(C2=NN(c3ccc(S(N)(=O)=O)cc3)C(c3ccc(Cl)cc3)C2)cc(OC)c1OC (stereo not drawn),2.02,14.5,5.15,> 100,5.12,> 100,,,3.41,> 100,6.67,> 100,4.79,> 100,3.77,> 100,3.76,> 100,3.69,> 100
CC(=O)/C=C/C1=C(c2cccs2)c2ccccc2CC1,,,17.8,34.2,27.5,81,41,> 100,37.6,> 100,23.5,48.5,25.2,56.2,21.8,52.7,27.3,81.7,60.7,> 100
Cc1nc2cc(Nc3nc(Nc4ccc(F)cc4)nc(N4CCN(C)CC4)n3)ccc2n1Cc1ccccc1,,,1.79,3.41,1.73,3.13,2.19,5.4,1.33,3.06,1.67,3.34,1.73,3.25,1.55,3.48,2.71,7.6,2,4.7
CC1CCP(=O)(c2ccccc2)CC1 (stereo not drawn),,,,> 100,,> 100,,> 100,,,,> 100,,> 100,,> 100,,,,> 100
CC(=O)[C-](C(C)=O)c1ccccc1.CC(=O)[C-](C(C)=O)c1ccccc1.CC[O-].CC[O-].[Ti+4],> 100,> 100,> 100,> 100,> 100,> 100,> 100,> 100,> 100,> 100,> 100,> 100,> 100,> 100,> 100,> 100,,,> 100,> 100
COc1cc(Cl)c2c3c(c(C(=O)c4ccccc4)oc13)CCC2,,,,> 100,,> 100,,> 100,,> 100,,> 100,,,,> 100,,,,
CC(O)(CNS(=O)(=O)c1ccccc1)c1ccccc1 (stereo not drawn),,> 100,,> 100,,,,> 100,,> 100,,> 100,,> 100,,> 100,,> 100,,> 100
CCCCCCNc1nc(N2CCOCC2)c2[nH]c(NCCCCCC)nc2n1,,,1.48,2.8,1.82,3.33,1.53,2.97,1.83,3.27,1.76,3.32,1.67,3.06,1.64,3.22,1.59,2.97,1.61,2.96
Cc1ccc(NC(=O)C2C(=O)N(c3ccc(C)c(C)c3)C(=O)/C2=N\NC(N)=S)cc1C (stereo not drawn),,> 100,,> 100,,> 100,,> 100,,> 100,,> 100,,> 100,,> 100,,,,
Cn1c2ccccc2c(=O)c2c([N+](=O)[O-])ccc(NCCN)c21,,20.2,,,,20.8,,25.9,,15.3,,17.2,,19.7,,26.7,,,,26.9
COc1ccc(C(=O)C(C(=O)C(=O)Nc2nccs2)c2ccc(OC)cc2)cc1 (stereo not drawn),,> 100,,> 100,,> 100,,> 100,,> 100,,> 100,,> 100,,> 100,,,,> 100
c1ccc2cc(Cn3c[n+](Cc4ccc5ccccc5c4)c4ccccc43)ccc2c1,0.192,1.57,,,1.59,3,,,,,,,1.54,3.15,,,16.6,61.8,1.46,2.89
CO[C@@]12C[C@H]3[C@@H]([C@@H](O)[C@@H](OC(=O)/C=C/c4ccccc4)[C@@]4(O)C(C)(C)CCC[C@]34C)[C@@H](C)C1=CC(=O)O2,,,4.14,15.6,12.4,27.4,6.76,30.8,8.8,> 100,4.84,19.5,6.74,28.6,4.51,19.2,11,> 100,17.1,48
O=C(Nc1ccccc1O)c1ccc(CNC(=O)c2sccc2Nc2ccnc(C(F)(F)F)c2)cc1,,,5.51,18.9,3.56,31.8,6.63,23.9,4.61,15.2,13.7,55.1,12.2,32,6.54,26.8,4.67,46.9,5.9,24.6
CCCCCC(O)(CCCCC)CCCCCCCCC1=C(O)c2[nH]c(=O)ccc2C(=O)C1=O,,28.1,,24,,20.3,,32,,16.4,,21,,23.6,,16.3,,,,35
CC1(C)CC(=O)C(=[N+]=[N-])C(=O)C1,,> 100,,> 100,,> 100,,> 100,,> 100,,> 100,,> 100,,> 100,,,,> 100
COc1cc2c([C@@H](OC(=O)c3ccccc3)c3ccc4c(c3)OCO4)nccc2c(OC)c1OC,,> 100,,> 100,,> 100,,> 100,,> 100,,> 100,,,,> 100,,,,> 100
O=C(O)/C(=C\c1ccccc1Cl)S(=O)(=O)c1ccccc1,,> 100,,> 100,,> 100,,> 100,,> 100,,> 100,,> 100,,> 100,,,,> 100
Cc1cc(C)c2c(SCc3ccc(Cl)cc3Cl)nc(N)nc2n1,,58.1,,> 100,,,,> 100,,> 100,,60.7,,> 100,,> 100,,> 100,,> 100
c1cc[c]([Sn]([S]c2cccc3cccnc23)([S]c2cccc3cccnc23)[c]2ccccc2)cc1,0.158,0.493,0.186,0.402,0.295,0.893,0.134,0.43,0.175,0.324,0.284,0.954,0.23,0.616,0.153,0.446,,,1.34,2.69
COc1cc(NCC2COc3c(ccc(OC)c3OC)C2=O)c([N+](=O)[O-])cc1OC (stereo not drawn),,,,> 100,,> 100,,> 100,,> 100,,> 100,,> 100,,> 100,,> 100,,> 100
COC(=O)/C(=C/c1ccc(OC)cc1)NC(=O)c1ccccc1,,> 100,,> 100,,> 100,,> 100,,> 100,,> 100,,> 100,,> 100,,,,> 100
